# Results: patent publication US4370331A, “L-Glaucine containing composition for cough relief” (Karl O. Helm Aktiengesellschaft, priority 1977, dated 1983)
# Values joined by “and” are separate entries in the source; they are usually repeats but may differ in a detail not shown here. Equal values may be shown once. Where a name gives a salt, the structure may show the parent alone. Read-outs that look alike come from different tables or passages of the source.
# Legend:
# [1] = tested on: cough pulses; test: Citric acid aerosol cough test in guinea pigs, subcutaneous, 30 min (method of Friebel and Reichle), Comparative test 1; format: in vivo; conditions: s.c.; for ED50: Cavia porcellus, sc, 0.5 h, 30 min after administering, 20% citric acid aerosol, 8 min
# Description: In order to compare the anti-cough effectiveness of codeine phosphate with the effectiveness of the different isomers of glaucine hydrobromide, the testing method of Friebel and Reichle was used. 60 guinea pigs with weights between 200 and 300 g were divided up into ten groups of different sizes. Before administering the active substance, each animal was subjected, on the same day as the day of test with the active substance, for a period of 8 minutes to an aerosol of 20% citric acid, the animal being confined in a chamber at constant air pressure. During this control test the number of cough pulses was counted with the help of a pressure transmitter. From these measurements an average control value for each group was calculated. After this preliminary control test, there was given subcutaneously to each animal of each group a suspension of the active substance in 1% sodium carboxymethyl cellulose. After 30 minutes each animal was again exposed in the test chamber for 8 minutes to the aerosol of 20% citric acid and the number of cough pressure pulses recorded. The different active substances were administered in increasing doses ranging from 3 mg/kg to 100 mg/kg of body weight. Altogether eight different doses were given. The results were expressed as percent deviation from the average control value for the group on the same day, the deviation being entered in a diagram against the logarithm of the dose administered. From the resulting effectiveness curve, based on the logarithm of the dose, the coefficient of correlation and the ED50 were calculated for each active substance, by the regression analysis method of Downie and Heath (1965). The values obtained for codeine phosphate, for d-glaucine hydrobromide, for d,l-glaucine hydrobromide and for l-glaucine hydrobromide thirty minutes after administering the active substance are summarized in Table I.
# [2] = tested on: intestinal motility; test: Intestinal motility / evacuation action of stomach-intestinal tract of mice (carbon suspension), Comparative test 2; format: in vivo; conditions: s.c.; for Distance travelled average % (of intestine length): 2 h, control 74.3%, * = significantly different from control (p < 0.05)
# Source text: One of the most unpleasant side effects of anti-cough medicine containing codeine is constipation and the occurrence of intestinal spasms. A model test for determining the effects of anti-cough active substances on intestinal motility and on the evacuation action of the stomach-intestinaltract of mice was therefore made. After subcutaneous injection of the active substance, each animal was given, through a throat probe, a 10% suspension of carbon in a 5% aqueous slurry of gum arabic. Two hours later the intestine was sectioned and the distance of stomach coecum measured, and also the distance travelled by the carbon, which was expressed as percent of intestine length.
# The effects of codeine phosphate, of d-glaucine hydrobromide and of l-glaucine hydrobromide on intestinal motility were determined at different doses. For each dose the average value was calculated for a sufficient number of animals.
# [3] = tested on: isolated guinea pig intestines (contractions induced by electric voltages); test: Suppression of electrically induced contractions in isolated guinea pig intestines, Comparative test 4; parameters: electrically induced contractions (Table III): unit not given here
# Description: In a further series of tests the effects of different doses of codeine phosphate in suppressing contractions induced in isolated guinea pig intestines by electric voltages were tested. For this purpose one electrode was immersed in the solution surrounding the intestinal preparation. The second electrode was connected to the preparation at the attachment point.
# [4] = tested on: anti-cough effectiveness; test: Oral anti-cough effectiveness in guinea pigs, 5% acid aerosol, Comparative test 8; format: in vivo; conditions: 1 h before 10 min exposure to 5% acid aerosol, last 5 minutes measured
# [5] = tested on: mice; test: Toxicity (LD50) in mice by the Wilcox method, Comparative test 7; format: in vivo
# Description: (§1) The toxicity thresholds of codeine phosphate, of d-glaucine hydrobromide and of d,l-glaucine hydrobromide were determined in mice by the Wilcox method. […] The toxicities of codeine phosphate and d,l-glaucine hydrobromide are about equal.
# [6] = tested on: isolated guinea pig intestine (spasms induced by carbachol); test: Suppression of spasms induced by carbachol in isolated guinea pig intestine; conditions: Cavia porcellus, read-out: concentration effective against carbachol induced spasms
# Source text: In further tests it was investigated in what concentrations the active substances being compared suppress spasms induced in isolated guinea pig intestine by carbachol or histamine. […] On the other hand d,l-glaucine was effective against histamine at molar concentrations of only 4×10^-8 to 4×10^-6 and against carbachol at molar concentrations of only 4×10^-7.
# [7] = Toxicity (LD50) in mice by the Wilcox method, Comparative test 7; format: in vivo; conditions: mouse, in vivo
# Description: as §1
# [8] = tested on: cough pulses; test: Oral citric acid aerosol cough test in guinea pigs, 1 h (equivalent effective doses), Comparative test 6; format: in vivo; conditions: for Cough pulses percent of control value: 20% citric acid aerosol 8 min
# [9] = tested on: isolated guinea pig intestines (contractions induced by electric voltages); test: Suppression of electrically induced contractions in isolated guinea pig intestines, Comparative test 4; conditions: isolated guinea pig intestine; codeine: increased doses; d-glaucine: higher concentrations than 4×10^-5; d,l-glaucine: 4×10^-5 to 6×10^-5
# [10] = tested on: cough pulses; test: Oral citric acid aerosol cough test in guinea pigs, time course 1-24 h, Comparative test 6; format: in vivo; conditions: codeine phosphate 75, d,l-glaucine hydrobromide 150, hydrochloride 135, embonate 378 mg/kg
# Description: In a further comparative test, 40 female guinea pigs with body weights between 230 and 500 g were divided into 4 groups and each animal was again subjected to the action of a 20% citric acid aerosol for 8 minutes. From the control values thus obtained the average control value for each group was calculated. Each animal of each group was then given, by means of a throat probe, either 75 mg/kg of codeine phosphate, or 135 mg/kg of d,l-glaucine hydrochloride, or 150 mg/kg of d,1-glaucine hydrobromide, or 378 mg/kg of d,l-glaucine embonate. These doses are the equimolar quantities, based on glaucine. After a period of 1, or 3, or 5, or 24 hours each animal was again subjected for 8 minutes to the action of the citric acid aerosol, and the number of cough pulses during this period was recorded. The values thus obtained were compared with the control values and the percent deviation of the average measured value for each group, from the average control value, was calculated.
# [11] = tested on: coughing centre; test: Coughing reflex by electrical stimulation of upper laryngeal nerves of anaesthetized cats (method of Domenjoz), Comparative test 5; format: in vivo; conditions: intravenous, anaesthetized cats
# Description: In a series of tests conducted by the method of Domenjoz, the effects of the different active substances on the coughing centre was examined by electrical stimulation of the upper laryngeal nerves of anaesthetized cats. Electrical stimulation of the nerve produces a coughing reflex and the intention is to reduce this by intravenous injection of the active substance. The minimal effective dose MED is determined by increasing the dose from 0.1 mg/kg of body weight up to 0.3 mg/kg, 1.0 mg/kg, 3.0 mg/kg and 6.0 mg/kg, until the dose is sufficient for completely suppressing the coughing reflex.
# In these tests each animal was given, on the one hand, codeine and, on the other hand, at sufficient time intervals also glaucine, so that the ratio of the minimal effective doses of glaucine and codeine can be deduced.
smiles,measurement,setting,value
COc1cc2c(cc1OC)-c1c(OC)c(OC)cc3c1[C@@H](C2)N(C)CC3 [l-glaucine hydrobromide],ED50,[1],31.2 mg/kg
same,"ED50 value, comparison in words",[1]; 30 min,considerably lower effective dose ED50 value compared to d-glaucine hydrobromide
same,Distance travelled average % (of intestine length),[2]; 3 mg/kg,74.3%
same,"intestinal activity, in words",[2]; 10 mg/kg,significant increase in intestinal activity
same,Distance travelled average % (of intestine length),[2]; 10 mg/kg,94.3%
same,"intestinal motility, in words",[2]; 30 mg/kg and 100 mg/kg,considerably more than the corresponding values for d-glaucine hydrobromide and codeine phosphate
same,Distance travelled average % (of intestine length),[2]; 30 mg/kg,85.4%
same,Distance travelled average % (of intestine length),[2]; 100 mg/kg,51.8%
same,"suppression of electrically induced contraction reflexes, in words",[3]; 4×10^-5,"more effectively suppressed, compared to what is obtained using d-glaucine hydrobomide"
same,"suppression of electrically induced contractions, in words",[3]; 8×10^-5,suppressed even more effectively
same,electrically induced contractions (Table III),"[3]; molar concentration 1 × 10^-5, hydrobromide",71 and 74
same,electrically induced contractions (Table III),"[3]; molar concentration 2 × 10^-5, hydrobromide",64 and 32
same,electrically induced contractions (Table III),"[3]; molar concentration 4 × 10^-5, hydrobromide",24 and 23
same,electrically induced contractions (Table III),[3]; molar concentration 8 × 10^-5,7
same,ED50,"[4]; Cavia porcellus, po, 1 h",7.21 mg/kg
"COc1cc2c(cc1OC)-c1c(OC)c(OC)cc3c1[C@@H](C2)N(C)CC3 [1-glaucine-d-tartrate, l-glaucine-d-tartrate]",Oral ED50,[4]; 60 min,"6,8 mg/kg"
"COc1cc2c(cc1OC)-c1c(OC)c(OC)cc3c1C(C2)N(C)CC3 (racemic) [d,l-glaucine]","toxicity, comparison in words",[5],considerably less toxic than d-glaucine
same,minimal effective concentration,[6],0.4 µM
"COc1ccc2c3c1O[C@H]1[C@@H](O)C=C[C@H]4[C@@H](C2)N(C)CC[C@@]341 [codeine phosphate, reference compound]",ED50,[1],20.6 mg/kg
same,"toxicity, comparison in words",[5],about equal
same,LD50,"[7]; po, peroral, read-out: LD50 peroral",640 mg/kg
same,LD50,"[7]; sc, subcutaneous, read-out: LD50 subcutaneous",230 mg/kg
same,Cough pulses percent of control value,[8]; 50 mg/kg,37%
same,Cough pulses percent of control value,[8]; 100 mg/kg,50%
same,"dose having about the same effect (codeine phosphate vs d,l-glaucine hydrobromide)",[8]; guinea pigs,~75 mg per kg of body weight
same,Distance travelled average % (of intestine length),[2]; 3 mg/kg,70.4%
same,Distance travelled average % (of intestine length),[2]; 10 mg/kg,74.3%
same,Distance travelled average % (of intestine length),[2]; 30 mg/kg,34.8%
same,Distance travelled average % (of intestine length),[2]; 100 mg/kg,20.6%
same,"induced spontaneous activity, in words",[9],the spontaneous activity induced by the codeine phosphate itself increases the contractions
same,"Cough pulses during 8 minutes, percent of control value, after 1 h",[10]; 1 h,84%
same,"Cough pulses during 8 minutes, percent of control value, after 3 h",[10]; 3 h,70%
same,"Cough pulses during 8 minutes, percent of control value, after 5 h",[10]; 5 h,84%
same,"Cough pulses during 8 minutes, percent of control value, after 24 h",[10]; 24 h,95%
same,inhibition at 10 µM,"[3]; Cavia porcellus, molar concentration of about 10^-5, read-out: suppression of electrically induced contraction reflexes",~50%
same,electrically induced contractions (Table III),[3]; molar concentration 1 × 10^-5,49
same,electrically induced contractions (Table III),[3]; molar concentration 2 × 10^-5,36 and 52
same,electrically induced contractions (Table III),[3]; molar concentration 4 × 10^-5,58
same,electrically induced contractions (Table III),[3]; molar concentration 5 × 10^-6,85 and 51
same,minimal effective dose,"[11]; Felis catus, read-out: MED (minimal effective dose completely suppressing the coughing reflex)",6 mg/kg
same,Duration of cough suppression,[11]; at MED,18 to 54 min
